In article PMC9727064, “Performance assessment and economic analysis of a human Liver-Chip for predictive toxicology” (Communications Medicine, 2022):

Assays:
[1] = tested on: human Liver-Chip (primary human hepatocytes); experiment: Liver-Chip albumin production in top channel effluent (ELISA); type: cell-based
Text: Cycles 1 to 4 tested 6–8 concentrations in duplicate for each of 10–13 drugs. To determine which sampling strategy was optimal for cycles 1 to 4 (16 doses × 1 replicate, 8 × 2, 5 × 3, or 4 × 4), we generated three different “dose-response” synthetic datasets, each distorted by different noise levels (low, medium, or high). For each of these datasets, we performed curve-fitting analyses and calculated the Root Mean Square Error between the “true” and estimated IC50 parameter. […] Some drugs were also repeated across cycles (on different donors or at different concentrations) to ensure experimental robustness. However, to replicate a more typical study design likely to be carried out by scientists in the pharmaceutical industry, we created cycle 5 with 6 drugs, where each was tested in 4 concentrations in triplicate. For each cycle, chips were dosed with drug over 8 days (referred to as Day 0 through Day 7).
The drug dosing concentrations were determined from the unbound human Cmax of each drug. First, the expected fraction of drug unbound in media with 2% FBS was extrapolated from plasma binding data for each drug. Dosing concentrations were then back calculated such that the unbound fraction in media would reflect relevant multiples of unbound human Cmax (Supplementary Data 1).
On the first dosing day (Day 0), all chips were imaged using the ECHO microscope. Five hundred microliters of effluent was collected from all four reservoirs of the pod and placed in a labeled 96-well plate. After collection, all the remaining media was carefully aspirated before dosing with 3.8 mL of corresponding dosing solution. Dosing occurred on study days 0, 2, and 4 for chips flowing at 30 µL/h, and on days 0, 1, 2, 3, 4, 5, and 6 for chips flowing at 150 µL/h. Effluent collection occurred on days 1, 3, and 7.
Top channel outlet effluents were analyzed to quantify albumin and alanine transaminase (ALT) levels on days 1, 3, and 7 using sandwich ELISA kits (Abcam, Albumin ab179887, ALT ab234578) according to vendor-provided protocols. Frozen (−80 °C) effluent samples were thawed overnight at 4 °C prior to assay. The Hamilton Vantage liquid handling platform was used to manage effluent dilutions (1:500 for albumin, neat for ALT), preparation of standard curves, and addition of antibody cocktail. Absorbance at 450 nm was measured using the SynergyNeo Microplate Reader (BioTek).
All statistical analyses were conducted in R[21] (version 4.1.2) and figures were produced using the R package ggplot2[22] (version 3.3.5). The dose-response analysis (Fig. 4) was carried out using the popular drc R package developed by Ritz et al.[23] using the generalized log-logistic dose-response model. The error bars in Figs. 3 and 4, correspond to the standard errors of the mean. The circles in Fig. 3 correspond to the samples used to calculate the corresponding statistics. The analysis of significance in Fig. 3 was performed using paired t-test across different days (same donor) and unpaired t-test across different donors (same day). In Fig. 3 the number of samples used were n = 3 for donor two, and n = 4 for donor three. For both donors, the number of the freshly thawed hepatocyte samples used to estimate the corresponding log2(Fold Change) were n = 4. Finally, the analysis of significance in Fig. 3 was performed using paired t-test.

[2] = tested on: human Liver-Chip (hepatocyte layer); experiment: Liver-Chip immunofluorescence imaging (caspase 3/7, TMRM, AdipoRed/LipidTOX); type: cell-based; conditions: for Immunofluorescent findings, donor one (Supplementary Figure 3) / Immunofluorescent findings, donor three (Supplementary Figure 3) / Immunofluorescent findings, donor two (Supplementary Figure 3): day 7 post-drug administration, hepatocyte layer, top channel; for Immunofluorescence staining result in words: caspase 3/7 (apoptosis) or TMRM (mitotoxicity), 7 days
Description: Chips were detached from pods and washed once with PBS. […] Afterwards, chips were washed with PBS and stored at 4 °C until staining. Following fixation, chips corresponding to low, medium, and high concentrations from each group were cut in half with a razor blade perpendicular to the co-culture channels. One half was used in the following staining protocol, while the other half was stored for future staining. All stains and washes utilized the bubble method, in which a small amount of air is flowed through the channel prior to bulk wash media to prevent a liquid-liquid dilution of the staining solution. […] Following 15 minutes of incubation at room temperature, each channel was washed with 200 µL of PBS (alternating channels, 2× for top and 3× for bottom). As an alternative lipid accumulation marker, 100 µL of HCS LipidTOX Deep Red (ThermoFisher, H34477) was diluted 1:1000 v/v in PBS with NucBlue counterstain and added to the top channel. After a 30 min incubation at room temperature, the chips were again allowed to reach room temperature before the channels were alternatively washed with 200 µL of PBS, the bottom channel undergoing three washes and the top channel undergoing two. Chips were then imaged using the Opera Phenix. Following lipid and DAPI staining and imaging, chips were stained with a […] (MRP2) antibody to visualize the bile canalicular structures characteristic of healthy Liver-Chips. […] Then, each channel was washed with 200 µL of PBS (alternating channels, 2× for top and 3× for bottom). […] Next, primary antibody Mouse anti-MRP2 (Abcam, ab3373) was prepared 1:100 in the original blocking buffer, diluted 1:4 in PBS. 100 µL of solution was added to each channel, and chips were stored overnight at 4 °C. The following day, each channel was washed with 200 µL of PBS (alternating channels, 2× for top and 3× for bottom). […] 100 µL of solution was added to each channel and chips incubated at room temperature, protected from light, for two hours. Then, each channel was washed with 200 µL of PBS (alternating channels, 2× for top and 3× for bottom). Chips were imaged immediately or stored at 4 °C until ready for imaging on the Opera Phenix. Chip replicates designated for live cell imaging were washed with PBS utilizing the bubble method. Chips were then cut in half perpendicular to the co-culture channels. […] The bottom chips halves were stained with NucBlue (Thermo) to visualize nuclei and Tetramethylrhodamine, methyl ester (TMRM) (ThermoFisher, I34361) to visualize active mitochondria. This staining panel was prepared in PBS with 5% FBS, with NucBlue at 2 drops per mL and TMRM at a 1:1000 ratio in original blocking buffer, diluted 1:4 in PBS. Chips were incubated in the dark at 37 °C for 30 min, and then each channel was washed with 200 µL of PBS (alternating channels, 2× for top and 3× for bottom). The chips were kept at 37 °C, protected from light, until ready for imaging with the Opera Phenix. Fluorescent confocal image acquisition was performed using the Opera Phenix High-Content Screening System and Harmony 4.9 Imaging and Analysis Software (PerkinElmer). Before acquisition, the Phenix internal environment was set to 37 °C and 5% CO2. […] Whole chips were placed directly into each slot, while top and bottom half chips were matched and combined in one chip slot. Chips were aligned flush with the adapter and one another. Any bubbles identified from visual inspection were washed out with PBS. Once ready, the stained chips were covered with transparent plate film to seal channel ports and loaded into the Phenix. […] Z-stacks were generated with 3.6 µm between slices for 28–32 planes so that the epithelium was located around the center of the stack. […] Raw images from fixed and live imaging were exported in TIFF format from the Harmony software. Using scripts written for FIJI (ImageJ), TIFFs across three color channels and multiple z-stacks were compiled into composite images for each field of view in each chip. […]

[3] = concentration causing a 50% reduction in albumin production
[4] = expanded drug list, lowest multiplier causing a 50% reduction in albumin production

SMILES: COC(c1ccccc1)(c1ccccc1)[C@H](Oc1nc(C)cc(C)n1)C(=O)O [Ambrisentan]
- Albumin IC50 Donor 1 [1, 3]: >300 multiples of the unbound human Cmax
- Albumin IC50 Donor 2 [1, 3]: >1000 multiples of the unbound human Cmax
- Albumin IC50 Donor 3 [1, 3]: >300 multiples of the unbound human Cmax
- Immunofluorescent findings, donor one (Supplementary Figure 3) [2]: No findings
- Immunofluorescent findings, donor three (Supplementary Figure 3) [2]: No findings
- IF imaging Donor 1 ([2]; matched pair analysis): No findings
- IF imaging Donor 2 ([2]; matched pair analysis): No findings
- IF imaging Donor 3 ([2]; matched pair analysis): No findings

SMILES: C=C[C@@H]1C[C@]1(NC(=O)[C@@H]1C[C@@H](Oc2ncc(OC)c3ccc(Cl)cc23)CN1C(=O)[C@@H](NC(=O)OC(C)(C)C)C(C)(C)C)C(=O)NS(=O)(=O)C1CC1 [Asunaprevir]
- Albumin change in words ([1]; Liver-Chip effluent): concentration and time-dependent changes
- Immunofluorescence staining result in words [2]: apoptosis-mediated cell death
- IF imaging Donor 1 ([2]; expanded drug list): Apoptosis

SMILES: CC(C(=O)O)c1ccc2oc(-c3ccc(Cl)cc3)nc2c1 (stereo not shown) [Benoxaprofen]
- Immunofluorescent findings, donor two (Supplementary Figure 3) [2]: Apoptosis
- IF imaging Donor 1 ([2]; expanded drug list): Apoptosis
- IF imaging Donor 2 ([2]; expanded drug list): Apoptosis

SMILES: CCN(CC)C(=O)/C(C#N)=C/c1cc(O)c(O)c([N+](=O)[O-])c1 [Entacapone]
- Albumin IC50 Donor 1 [1, 3]: >300 multiples of the unbound human Cmax
- Immunofluorescent findings, donor one (Supplementary Figure 3) [2]: No findings
- IF imaging Donor 1 ([2]; matched pair analysis): No findings

SMILES: O=c1[nH]c(=O)n([C@@H]2O[C@H](CO)[C@@H](O)[C@@H]2F)cc1I [FIRU]
- Albumin IC50 Donor 1 [1, 3]: >300 multiples of the unbound human Cmax
- Albumin IC50 Donor 2 [1, 3]: >300 multiples of the unbound human Cmax
- Immunofluorescent findings, donor one (Supplementary Figure 3) [2]: No findings
- IF imaging Donor 1 ([2]; matched pair analysis): No findings
- IF imaging Donor 2 ([2]; matched pair analysis): Steatosis

SMILES: O=c1[nH]c(=O)n([C@@H]2O[C@H](CO)[C@@H](O)[C@@H]2F)cc1I [Fialuridine]
- Albumin IC50 Donor 1 [1, 3]: <0.1 multiples of the unbound human Cmax
- Albumin IC50 Donor 2 [1, 3]: <1 multiples of the unbound human Cmax
- Immunofluorescent findings, donor one (Supplementary Figure 3) [2]: No findings
- Immunofluorescent findings, donor two (Supplementary Figure 3) [2]: Steatosis
- IF imaging Donor 1 ([2]; matched pair analysis): No findings
- IF imaging Donor 2 ([2]; matched pair analysis): Steatosis

SMILES: CC(CCc1ccccc1)NCC(O)c1ccc(O)c(C(N)=O)c1 (stereo not shown) [Labetalol]
- Albumin IC50 Donor 1 [1, 4]: 26 unbound human Cmax multiplier
- Albumin IC50 Donor 2 [1, 4]: 40 unbound human Cmax multiplier
- Immunofluorescent findings, donor one (Supplementary Figure 3) [2]: Apoptosis
- Immunofluorescent findings, donor two (Supplementary Figure 3) [2]: Apoptosis
- IF imaging Donor 1 ([2]; expanded drug list): Apoptosis
- IF imaging Donor 2 ([2]; expanded drug list): Apoptosis

SMILES: C[C@H]1COc2c(N3CCN(C)CC3)c(F)cc3c(=O)c(C(=O)O)cn1c23 [Levofloxacin]
- Albumin IC50 Donor 1 [1, 3]: >15 multiples of the unbound human Cmax
- Albumin IC50 Donor 2 [1, 3]: >45 multiples of the unbound human Cmax
- Albumin IC50 Donor 3 [1, 3]: >45 multiples of the unbound human Cmax
- Immunofluorescence staining result in words [2]: did not cause cellular apoptosis
- Immunofluorescent findings, donor one (Supplementary Figure 3) [2]: No findings
- Immunofluorescent findings, donor three (Supplementary Figure 3) [2]: No findings
- IF imaging Donor 1 ([2]; matched pair analysis): No findings
- IF imaging Donor 2 ([2]; matched pair analysis): No findings
- IF imaging Donor 3 ([2]; matched pair analysis): No findings

SMILES: O=C(NC1CCN(CCCCC2(C(=O)NCC(F)(F)F)c3ccccc3-c3ccccc32)CC1)c1ccccc1-c1ccc(C(F)(F)F)cc1 [Lomitapide]
- Albumin IC50 Donor 1 [1, 4]: 4 unbound human Cmax multiplier
- Immunofluorescent findings, donor one (Supplementary Figure 3) [2]: No findings
- IF imaging Donor 1 ([2]; expanded drug list): No findings

SMILES: CCc1nn(CCCN2CCN(c3cccc(Cl)c3)CC2)c(=O)n1CCOc1ccccc1 [Nefazodone]
- Albumin IC50 Donor 1 [1, 3]: 140 multiples of the unbound human Cmax
- Immunofluorescent findings, donor one (Supplementary Figure 3) [2]: No findings
- IF imaging Donor 1 ([2]; matched pair analysis): No findings

SMILES: Cc1cc2c(s1)Nc1ccccc1N=C2N1CCN(C)CC1 [Olanzapine]
- Immunofluorescent findings, donor one (Supplementary Figure 3) [2]: Apoptosis
- Immunofluorescent findings, donor three (Supplementary Figure 3) [2]: No findings
- IF imaging Donor 1 ([2]; matched pair analysis): Apoptosis
- IF imaging Donor 2 ([2]; matched pair analysis): No findings
- IF imaging Donor 3 ([2]; matched pair analysis): No findings

SMILES: CCc1ccc(CCOc2ccc(CC3SC(=O)NC3=O)cc2)nc1 (stereo not shown) [Pioglitazone]
- Albumin IC50 Donor 1 [1, 3]: 277 multiples of the unbound human Cmax
- Albumin IC50 Donor 2 [1, 3]: >300 multiples of the unbound human Cmax
- Immunofluorescent findings, donor one (Supplementary Figure 3) [2]: Apoptosis
- Immunofluorescent findings, donor two (Supplementary Figure 3) [2]: No findings
- IF imaging Donor 1 ([2]; matched pair analysis): Apoptosis
- IF imaging Donor 2 ([2]; matched pair analysis): No findings

SMILES: Cc1cc2c(cc1CC(=O)c1sccc1S(=O)(=O)Nc1onc(C)c1Cl)OCO2 [Sitaxsentan]
- Albumin IC50 Donor 1 [1, 3]: 4.4 multiples of the unbound human Cmax
- Albumin IC50 Donor 2 [1, 3]: 164 multiples of the unbound human Cmax
- Albumin IC50 Donor 3 [1, 3]: >100 multiples of the unbound human Cmax
- Immunofluorescence staining result in words [2]: concentration-dependent decrease in TMRM staining
- Immunofluorescent findings, donor one (Supplementary Figure 3) [2]: Mitotoxicity
- Immunofluorescent findings, donor three (Supplementary Figure 3) [2]: Mitotoxicity
- Immunofluorescent findings, donor two (Supplementary Figure 3) [2]: Mitotoxicity
- IF imaging Donor 1 ([2]; matched pair analysis): Mitotoxicity
- IF imaging Donor 2 ([2]; matched pair analysis): Mitotoxicity
- IF imaging Donor 3 ([2]; matched pair analysis): Mitotoxicity
